Measurements as given in patent EP0623672A1, “New alkaline serine protease of Paecilomyces lilacinus” (RESEARCH INSTITUTE FOR PLANT PROTECTION, priority 1993, dated 1994).
Where two headings read alike, the source gives them in different places.

Assays:
[1] = target: serine protease of Paecilomyces lilacinus (Purpureocillium lilacinum, UniProt Q01471); assay type: biochemical
Protocol: (§1) Protease activity was determined by a modified procedure of Rinderknecht et al. (1968). Ten mg of Hide Powder Azure (Sigma) was incubated in 50 mM Sodium acetate buffer pH 6.0 with the sample in a final volume of 3 ml in small glass containers. Incubation was at 37 °C in a shaking waterbath (110 strokes(min) till the solution turned blue (between 5 and 30 minutes). Following incubation the samples were put on ice and centrifuged in 1.5 ml Eppendorf cups for 5 minutes at 14.000 g. The absorbance of the supernatant was measured at 595 nm on a Uvikon 940 spectrophotometer. Protease activity of the sample was measured in duplo, averaged and expressed as A₅₉₅ ml⁻¹hr⁻¹ after correction for the blank (Milli Q water).
Several protease inhibitors, SH reducing agents and metal ions were tested on the proteolytic activity of the protease: PMSF, E64, 1.10-phenantroline, pepstatine (Sigma); EDTA, cystein MgCl₂ and CaCl₂ (Merck); DTT (BioRad). The purified enzyme was incubated for 40 minutes at 4 °C with inhibitor. After incubation the protease-activity was determined as previously described. Final inhibitor concentration was 1 mM. Protease activity in the absence of inhibitor was expressed as 100 %.

[2] = system: proteolytic activity in the culture filtrate; assay: Inhibition of proteolytic activity in the culture filtrate by protease inhibitors; assay type: biochemical, Paecilomyces lilacinus
Protocol: as §1
To identify the nature of the protease the proteolytic activity in the culture filtrate was inhibited with several protease inhibitors. […] Purification of the serine protease(s) was first performed with Benzamidine-Sepharose, an affinity resin for serine proteases of class I (Pharmacia).

Paecilomyces lilacinus = assay: Catabolite repression of protease induction in liquid culture; assay type: cell-based; conditions: glucose 0.3 % added each day to MNNC (chitin as substrate); mycelium as inoculum; Figure 2
Protocol: In one experiment mycelium of Paecilomyces lilacinus was used as inoculum. Mycelium was obtained by centrifuging a 6 day old culture of conidia of P. lilacinus in MMNG for 45 minutes at 9000 g. Cultures were grown in a shaking waterbath for several days at 30 °C and 125 strokes per minute. Culture filtrates were obtained by centrifuging cultures for 45 min at 9000 g. Supernatants were concentrated using an Amicon (YM-10 filter) and clarified through a 0.22 µm-filter (Schleicher & Schuell). Pellets were freeze dried and the weigth of the mycelium was measured.
as §1, with “Ten mg of Hide Powder Azure (Sigma) was incubated in 50 mM Sodium acetate buffer pH 6.0 with the sample in a final volume of 3 ml in small glass containers.” left out
To see whether the fungus used glucose as carbon sourece, glucose concentrations were determined in the culture filtrate, of the fungus in MNNG (Figure 1). […]

[3] = 1 mM final, 40 minutes at 4 °C, Figure 7

Sequence of serine protease of Paecilomyces lilacinus (Q01471 entry or part of it): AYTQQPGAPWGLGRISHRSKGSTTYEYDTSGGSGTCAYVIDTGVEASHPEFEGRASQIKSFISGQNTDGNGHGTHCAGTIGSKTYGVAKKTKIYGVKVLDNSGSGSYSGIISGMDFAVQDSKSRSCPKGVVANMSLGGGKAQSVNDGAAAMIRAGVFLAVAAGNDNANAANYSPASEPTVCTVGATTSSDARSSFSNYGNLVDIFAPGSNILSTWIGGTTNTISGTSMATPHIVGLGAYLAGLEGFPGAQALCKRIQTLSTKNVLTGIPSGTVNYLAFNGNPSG

Row | Molecule | effect on the proteolytic activity of the purified protease [1, 3] | further results
1 | OC(CS)C(O)CS (centres unmarked) [DTT] | did not influence its activity | –
2 | O=C(O)CN(CCN(CC(=O)O)CC(=O)O)CC(=O)O [EDTA] | – | effect on the proteolytic activity of the purified protease [1]: enhanced its activity
3 | O=S(=O)(F)Cc1ccccc1 [PMSF] | – | inhibition of the activity of the purified protease ([1]; inhibitor 1 mM final, 40 minutes at 4 °C, activity without inhibitor = 100 %, Figure 7): 100%; inhibition of the proteolytic activity in the culture filtrate [2]: most of the protease activity present in the medium was inhibited
4 | N[C@@H](CS)C(=O)O [cystein] | did not influence its activity | –
5 | OC[C@H]1OC(O)[C@H](O)[C@@H](O)[C@@H]1O (some centres unmarked) [glucose] | – | induction of protease activity (Paecilomyces lilacinus): repressed
6 | CaCl₂ [Ca⁺⁺] | lowered the protease activity slightly | –
7 | MgCl₂ [Mg⁺⁺] | lowered the protease activity slightly | –
